The results in this text go back to patent US20060084789A1, “Immunotherapeutic and immunoprphylactic reagents” (priority 2002, published 2006).

For this test, the system named is RGP-specific TCL. Briefly: TCL proliferation assay (3H-thymidine incorporation, stimulation index). The class given is cell-based, human. The conditions noted are these: for T cell responses to Lol p 5 peptides: 21 TCL tested; for Proliferative response, stimulation index: peptides 10 μg/ml; for Lol p 1 peptides recognised by one or more TCL: 34 TCL tested, all recognised with the exception of the four named. Here is the method:
Generation of Short-Term RGP-Specific TCL
PBMC were cultured in 24-well plates (Costar, Mass., USA) at 2.5×10^6 cells/well with RGP extract at a concentration of 25 or 50 μg/ml in RPMI 1640 medium (Gibco BRL, NY, USA) supplemented with 2 mM GlutaMAX I (Gibco BRL), 0.05 mg/ml gentamicin (David Bull Laboratories, Mulgrave, Victoria, Australia) and 5% heat-inactivated hunan AB^+ serum (Sigma, Mo., USA) for 7 days at 37° C. in a 5% CO2 humidified incubator. At day 7, cells were washed once and restimulated in 24-well plates at 5×10^5 cells/well width 25 or 50 μg/ml of RGP extract in the presence of 5×10^5 cells/well irradiated (3000 rads) autologous PBMC as a source of antigen presenting cells (APC). At day 2 following restimulation, 10 U/ml of Lymphocult T-LF (LC; Biotest, Germany) was added as a source of IL-2 and at day 4, 1 ml of culture medium was removed and replaced with fresh medium and 10 U/ml of LC. […] In all experiments T cells were rested for 6 to 7 days after the last addition of antigen and APC before testing.
T cells (5×10^4/well) were cultured in 96-well U bottom plates with either RGP extract at concentrations ranging from 25 to 200 μg/ml, purified Lol p 1 (0.12 to 2 μg/ml) or Lol p 5 (0.1 to 10 μg/ml), or Lol p 1 or Lol p 5 peptides (10 μg/ml), or medium alone (to determine background levels of proliferation), in the presence of washed autologous irradiated (3000 rads) PBMC (5×10^4/well). […] Cultures were incubated for 3 days, pulsed for the last 16 hours with ^3H-thymidine (1 μCi/well) and harvested onto glass fibre filters. ^3H-thymidine incorporation was measured by liquid scintillation spectroscopy and the mean counts per minute (cpm) for triplicate cultures was determined. Responses were considered positive if the stimulation index (SI, cpm of antigen-stimulated T cells divided by cpm of unstimulated T cells) was ≧2.5. Where several concentrations of allergen were tested (i.e., RGP, Lol p 1 and Lol p 5), values corresponding to the highest proliferation are shown.

The mark [1] stands for this setting: Subject 3 TCL, Lol p 1 series (Table 3), RGP and Lol p 1 maximal response.
Setting [2] is: Subject 11 TCL, Lol p 1 series (Table 3), RGP and Lol p 1 maximal response.
Setting [3] is: Subject 4 TCL, Lol p 1 series (Table 3), RGP and Lol p 1 maximal response.
Setting [4] is: Subject 2 TCL, Lol p 1 series (Table 3), RGP and Lol p 1 maximal response.
The mark [5] stands for this setting: Subject 12 TCL, Lol p 1 series (Table 3), RGP and Lol p 1 maximal response.
[6] abbreviates: Subject 4 TCL, Lol p 5 series (Table 4), RGP and Lol p 5 maximal response.
The mark [7] stands for this setting: Subject 12 TCL, Lol p 5 series (Table 4), RGP and Lol p 5 maximal response.
Setting [8] is: Subject 20 TCL, Lol p 5 series (Table 4), RGP and Lol p 5 maximal response.
The mark [9] stands for this setting: Subject 7 TCL, Lol p 5 series (Table 4), RGP and Lol p 5 maximal response.
[10] abbreviates: Subject 11 TCL, Lol p 5 series (Table 4), RGP and Lol p 5 maximal response.
Setting [11] is: Subject 35 TCL, Lol p 5 series (Table 4), RGP and Lol p 5 maximal response.
The mark [12] stands for this setting: Subject 36 TCL, Lol p 5 series (Table 4), RGP and Lol p 5 maximal response.
[13] abbreviates: Subject 37 TCL, Lol p 5 series (Table 4), RGP and Lol p 5 maximal response.

For “Lol p 5 peptide 136-155: synthetic 20-mer, amino acids 136-155 of Lol p 5A (SEQ ID NO:2) (EVPAAKIPTGELQIVDKIDA; Lolium perenne)”, the “T cell responses to Lol p 5 peptides” value is on record as “nor were T cell responses detected”. As for “Lol p 1 peptide 217-236: synthetic 20-mer, amino acids 217-236 of Lol p 1A (SEQ ID NO:1) (EGGTKSEVEDVIPEGWKADT; Lolium perenne)”, the “Proliferative response, stimulation index” value is given as 3.3 under setting [1] and 4.4 under setting [2]. Turning to “FEIKCTKPESCSGEAVTVTI (Lolium perenne) [Lol p 1 peptide 73-92]”, the “Proliferative response, stimulation index” value (Subject 1 TCL, Lol p 1 series (Table 3), RGP and Lol p 1 maximal response) is recorded as 3.9; the “Proliferative response, stimulation index” value under setting [3] was found to be 2.9; the “Proliferative response, stimulation index” value under setting [2] stood at 2.6.

For “Lol p 1 peptide 91-110: synthetic 20-mer, amino acids 91-110 of Lol p 1A (SEQ ID NO:1)”, the “Proliferative response, stimulation index” value runs as follows: under setting [3], 3.6; under setting [2], 4.9.

For the substance “AGELELQFRRVKCKYPDDTK (Lolium perenne) [Lol p 1 peptide 127-146]”, the “Proliferative response, stimulation index” value under setting [4] turned out to be 5.8; the “Proliferative response, stimulation index” value (Subject 13 TCL, Lol p 1 series (Table 3), RGP and Lol p 1 maximal response) amounted to 3.7; the “Proliferative response, stimulation index” value (Subject 17 TCL, Lol p 1 series (Table 3), RGP and Lol p 1 maximal response) is recorded as 3.0. Consider “Lol p 1 peptide 118-137: synthetic 20-mer, amino acids 118-137 of Lol p 1A (SEQ ID NO:1) (KGEEQKLRASAGELELQFRR; Lolium perenne)”, for which the “Proliferative response, stimulation index” value under setting [4] is reported as 6.2 and the “Proliferative response, stimulation index” value under setting [5] amounted to 2.5. On to “Lol p 1 peptide 145-164: synthetic 20-mer, amino acids 145-164 of Lol p 1A (SEQ ID NO:1) (GTKPTFHVEKASNPNYLAIL; Lolium perenne)”, for which the “Proliferative response, stimulation index” value under setting [5] stood at 4.5. “KFTVFESAFNKALNECTGGA (Lolium perenne) [Lol p 5 peptide 172-191]”: the “Proliferative response, stimulation index” value under setting [6] came out at 2.7; the “Proliferative response, stimulation index” value under setting [7] is given as 2.5; the “Proliferative response, stimulation index” value under setting [8] is recorded as 3.0.

Turning to “Lol p 1 peptide 172-191: synthetic 20-mer, amino acids 172-191 of Lol p 1A (SEQ ID NO:1) (GDVVAVDIKEKGKDKWIELK; Lolium perenne)”, the “Proliferative response, stimulation index” value (Subject 9 TCL, Lol p 1 series (Table 3), RGP and Lol p 1 maximal response) is on record as 2.5. As to “Lol p 5 peptide 82-101: synthetic 20-mer, amino acids 82-101 of Lol p 5A (SEQ ID NO:2) (GLIPKLDTAYDVAYKAAEGA; Lolium perenne)”, the “T cell responses to Lol p 5 peptides” value was “nor were T cell responses detected”.

Regarding “AFSESSKGLLATSAAKAPGL (Lolium perenne) [Lol p 5 peptide 64-83]”, the “Proliferative response, stimulation index” value is, setting by setting: under setting [6], 2.8; under setting [9], 2.8.

For the substance “PEVKYAVFEAALTKAITAMT (Lolium perenne) [Lol p 5 peptide 217-236]”, the “Proliferative response, stimulation index” value under setting [10] amounted to 5.4; the “Proliferative response, stimulation index” value under setting [8] came to 4.5; the “Proliferative response, stimulation index” value (Subject 27 TCL, Lol p 5 series (Table 4), RGP and Lol p 5 maximal response, † affinity purified Lol p 5) is reported as 9.5; the “Proliferative response, stimulation index” value under setting [11] is given as 3.5; the “Proliferative response, stimulation index” value under setting [12] worked out at 3.5; the “Proliferative response, stimulation index” value under setting [13] came out at 11.0.

For the substance “Lol p 5 peptide 127-146: synthetic 20-mer, amino acids 127-146 of Lol p 5A (SEQ ID NO:2) (VHAVKPATEEVPAAKIPTGE; Lolium perenne)”, the “T cell responses to Lol p 5 peptides” value is recorded as “nor were T cell responses detected”. Regarding “Lol p 1 peptide 199-218: synthetic 20-mer, amino acids 199-218 of Lol p 1A (SEQ ID NO:1) (RIDTPDKLTGPFTVRYTTEG; Lolium perenne)”, the “Lol p 1 peptides recognised by one or more TCL” value (“Lol p 1 peptides recognised” below) is “exception”.

In the case of “Lol p 5 peptide 109-128: synthetic 20-mer, amino acids 109-128 of Lol p 5A (SEQ ID NO:2) (AFVTALTEALRVIAGALEVH; Lolium perenne)”, the “T cell responses to Lol p 5 peptides” value is “nor were T cell responses detected”.

As for “Lol p 1 peptide 208-227: synthetic 20-mer, amino acids 208-227 of Lol p 1A (SEQ ID NO:1) (GPFTVRYTTEGGTKSEVEDV; Lolium perenne)”, the “Lol p 1 peptides recognised” value is recorded as “exception”. For the same substance, the “Proliferative response, stimulation index” value under setting [1] came to 4.4. As for “Lol p 5 peptide 181-200: synthetic 20-mer, amino acids 181-200 of Lol p 5A (SEQ ID NO:2) (NKALNECTGGAYETYKFIPS; Lolium perenne)”, the “Proliferative response, stimulation index” value under setting [8] was 3.4. As to “Lol p 1 peptide 163-182: synthetic 20-mer, amino acids 163-182 of Lol p 1A (SEQ ID NO:1) (ILVKYVDGDGDVVAVDIKEK; Lolium perenne)”, the “Lol p 1 peptides recognised” value was “exception”. Moreover, where the note is “Subject 23 TCL, Lol p 1 series (Table 3), RGP and Lol p 1 maximal response”, the “Proliferative response, stimulation index” value came out at 4.2. Consider “Lol p 5 peptide 73-92: synthetic 20-mer, amino acids 73-92 of Lol p 5A (SEQ ID NO:2) (LATSAAKAPGLIPKLDTAYD; Lolium perenne)”, for which the “Proliferative response, stimulation index” value under setting [9] is listed as 2.6. Turning to “Lol p 1 peptide 46-65: synthetic 20-mer, amino acids 46-65 of Lol p 1A (SEQ ID NO:1) (VDKAPFNGMTGCGNTPIFKD; Lolium perenne)”, the “Proliferative response, stimulation index” value (Subject 5 TCL, Lol p 1 series (Table 3), RGP and Lol p 1 maximal response) worked out at 8.4; the “Proliferative response, stimulation index” value under setting [5] was 4.0. With “Lol p 1 peptide 82-101: synthetic 20-mer, amino acids 82-101 of Lol p 1A (SEQ ID NO:1) (SCSGEAVTVTITDDNEEPIA; Lolium perenne)”, the “Proliferative response, stimulation index” value runs as follows: under setting [1], 3.6; under setting [2], 3.6. In the case of “VAAAANAPPADKFKIFEAAF (Lolium perenne) [Lol p 5 peptide 46-65]”, the “Proliferative response, stimulation index” value by setting is: under setting [7], 6.5; under setting [12], 2.7; under setting [13], 6.6. On to “Lol p 1 peptide 221-240: synthetic 20-mer, amino acids 221-240 of Lol p 1A (SEQ ID NO:1) (KSEVEDVIPEGWKADTSYSA; Lolium perenne)”, for which the “Proliferative response, stimulation index” value under setting [2] turned out to be 3.3. For the substance “Lol p 5 peptide 100-119: synthetic 20-mer, amino acids 100-119 of Lol p 5A (SEQ ID NO:2) (GATPEAKYDAFVTALTEALR; Lolium perenne)”, the “Proliferative response, stimulation index” value was found to be 3.8 under setting [6], 10.0 under setting [10], 7.5 under setting [7] and 2.5 under setting [11]. For the substance “Lol p 1 peptide 55-74: synthetic 20-mer, amino acids 55-74 of Lol p 1A (SEQ ID NO:1) (TGCGNTPIFKDGRGCGSCFE; Lolium perenne)”, the “Lol p 1 peptides recognised” value is “exception”.
